Results on 31 compounds are retold here after patent publication US6043045A, “Screening methods for the identification of novel antibiotics” (The Scripps Research Institute, priority 1998, dated 2000).

“Also recorded” adds a separate entry of the source. Where two headings read alike, the source gives them in different places.

For this experiment, the target named is T1, KinA (Bacillus subtilis, UniProt P16497).
T1 construct: made in house
T1 sequence (P16497 1-606): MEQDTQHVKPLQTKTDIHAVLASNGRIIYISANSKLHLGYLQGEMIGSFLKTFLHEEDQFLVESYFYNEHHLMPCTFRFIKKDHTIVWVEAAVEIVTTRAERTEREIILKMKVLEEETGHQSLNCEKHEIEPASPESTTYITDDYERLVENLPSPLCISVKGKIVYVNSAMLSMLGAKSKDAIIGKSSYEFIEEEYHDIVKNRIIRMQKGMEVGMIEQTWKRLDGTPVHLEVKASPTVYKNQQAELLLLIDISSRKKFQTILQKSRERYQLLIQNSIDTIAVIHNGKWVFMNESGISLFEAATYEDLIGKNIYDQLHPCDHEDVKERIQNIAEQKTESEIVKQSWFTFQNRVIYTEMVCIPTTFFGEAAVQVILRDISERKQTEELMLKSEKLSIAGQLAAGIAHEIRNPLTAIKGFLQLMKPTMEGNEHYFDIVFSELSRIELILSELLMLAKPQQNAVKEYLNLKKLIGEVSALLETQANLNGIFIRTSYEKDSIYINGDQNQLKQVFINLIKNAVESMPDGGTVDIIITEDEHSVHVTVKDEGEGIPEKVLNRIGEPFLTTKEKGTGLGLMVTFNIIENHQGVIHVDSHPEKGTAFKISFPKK
Briefly: biochemical. Type of experiment: biochemical. The following applies: for inhibition of KinA phosphorylation of SpoOF (in words): tested at 0.08% final concentration. The method, then: The reactions were performed in a 25 μl final volume containing 100 mM Tris pH 8.0, 100 mM KCl, 2 mM MgCl2, 0.5 mM dithiothreitol, 10% (v/v) glycerol, 0.1 % (w/v) gelatin, 4% (v/v) ethanol, 200 μM total ATP containing approximately 1.5 μCi [gamma-^32 P]ATP (New England Nuclear, 6000 Ci/mMol, 150 μCi/ml), 300 μM SpoOF protein and 0.04 μM KinA protein (Perego, et al., J. Bacteriol. 171: 6187-6196 (1989)) unless otherwise indicated. Fatty acids were added to varying final concentration from solutions made with 100% ethanol (the 4% ethanol concentration in the reaction mixture reflects these addition, or in the case of controls, the addition of ethanol alone). The reactions were initiated by addition of the ATP and incubated for thirty minutes at room temperature.
When higher KinA concentrations were used, the time of incubation was adjusted accordingly. The reactions were stopped by adding an equal volume of loading dye (0.25 M Tris pH 6.8, 20% (v/v) glycerol, 1% sodium dodecyl sulfate (w/v), 140 mM β-mercaptoethanol, 0.05% (w/v) bromophenol blue) and aliquots were loaded onto polyacrylamide gels (5% stacking, 15% separating, using the buffer system of Laemmi, Id., 1970).
The gels were run for approximately 16 hours at 10 mA constant current. The gels were covered with plastic wrap and subjected to autoradiography using Kodak XOmat RP1 film. Quantitation of activity was accomplished by cutting gels slices containing the appropriate phosphoprotein (usually SpoOF~P, see Section E below) and counting the Cerenkov radiation in a Beckman LF7500 scintillation counter (Beckman Instruments, Fullerton, Calif.). Equal-sized slices from blank areas of the gels were also counted and used to adjust for background. Percentage of activity was calculated using the value of the control reaction as 100%.
To quantify our initial assessment of inhibitory properties, the I0.5 values (at 4×10^-8 M KinA) were determined for each of the fatty acids. […] For example, the percent activity at an indicated oleic acid concentration is the ratio (×100) of the incorporation of ^32 P (from [γ^32 P]ATP) into the SpoOF protein relative to the incorporation in the control reaction containing no inhibitor. Typically, data are gathered from at least two different experiments. The I0.5 value is the concentration--e.g., the oleic acid concentration--corresponding to 50% activity as determined from the relevant graph.

[1] abbreviates: Table 4, I0.5 at 4×10^-8 M KinA, 32P incorporation into SpoOF, read-out: Fatty Acid Inhibitors of KinA Activity (category by I0.5).
The mark [2] stands for this setting: Fatty Acid Inhibitors of KinA Activity (category by I0.5), Table 4, I0.5 at 4×10^-8 M KinA, 32P incorporation into SpoOF.
Where [3] appears, read: at 4×10^-8 M KinA, read-out: I0.5 value (concentration corresponding to 50% KinA activity).

With `CCCCCCCCCCCC(=O)O` [dodecanoic], the “inhibitory effect on KinA in vitro (in words)” value (shortened to “inhibitory effect on KinA”) is “not inhibitors”. Besides, the IC50 under setting [1] was above 1000 µM.
As to `CCCCCCCC/C=C/CCCCCCCC(=O)O` [trans-9-octadecenoic], the IC50 under setting [1] was above 1000 µM. Also, the “inhibitory effect on KinA” value (listed as elaidic) is given as “little or no inhibitory effect; also recorded: not inhibitory”.
As for `CC(C)CCCCCCCCCCC(=O)O` [12-methyltridecanoic], the “inhibitory effect on KinA” value is listed as “weak inhibitors”. The IC50 under setting [1] is 100 to 500 µM. The “inhibitory effect on KinA” value (listed as 12-methyltridecanoic acid) was “weak in vitro inhibitors”. Under “listed as iso 14:0”, the “inhibitory effect on KinA” value is recorded as “weak inhibitory properties”.
For `C/C=C/C(=O)O` [trans-2-butenoic], the IC50 under setting [1] was above 1000 µM.
With `CCCCCCCC/C=C\CCCCCCCCCC(=O)O` [cis-11-eicosenoic], the IC50 under setting [1] was below 70 µM.
As for `CCCCCCCC/C=C\CCCCCCCCCCCC(=O)O` [cis-13-docosenoic], the “inhibitory effect on KinA” value is listed as “non-inhibitory”. The IC50 under setting [1] was above 1000 µM.
With L-α-glycerophosphatidylcholine, the “inhibition of KinA phosphorylation of SpoOF (in words)” value (shortened to “inhibition”) is “Only oleic acid and stearic acid were inhibitory”.
On to `CCCCCCCCCCCCCCCCCC(=O)O` [octadecanoic], for which the “inhibition” value is given as “weak inhibition”. This compound also gave an IC50 under setting [2] of 100 to 500 µM. This compound also had an IC50 (I0.5 value (concentration corresponding to 50% KinA activity), at 4×10^-8 M KinA) of 500 µM. Besides, the “inhibitory effect on KinA” value (listed as stearic) was “little or no inhibitory effect”. Besides, the “inhibitory effect on KinA” value (listed as stearic acid) is given as “weak inhibitor; also recorded: very weak inhibitor”.
`CCCCCCCC/C=C\CCCCCCCCCCCCCC(=O)O` [cis-15-tetracosenoic]: the “inhibitory effect on KinA” value is recorded as “non-inhibitory”. Moreover, the IC50 under setting [2] is above 1000 µM.
As to `CCCCCCCCCC(=O)O` [decanoic], the “inhibitory effect on KinA” value was “not inhibitors”. Moreover, the IC50 under setting [2] is above 1000 µM.
Regarding `CCCCCCCCCCCCCC(=O)O` [tetradecanoic], the IC50 under setting [1] was above 1000 µM.
In the case of `CC(C)CCCCCCCCCCCC(=O)O` [13-methyltetradecanoic], the “inhibitory effect on KinA” value was “weak inhibitors”. The IC50 under setting [1] was 100 to 500 µM. The IC50 under setting [3] turned out to be 400 µM. The “inhibitory effect on KinA” value (listed as 13-methyltetradecanoic acid) is “weak in vitro inhibitors”. In addition, the “inhibitory effect on KinA” value (listed as iso 15:0) is “weak inhibitory properties”.
As to `CCCCCCCCCCC/C=C\CCCCC(=O)O` [cis-6-octadecanoic], the IC50 under setting [1] was below 70 µM.
On to `CC(C)CCCCCCCCCCCCC(=O)O` [14-methylpentadecanoic], for which the “inhibitory effect on KinA” value is “not inhibitors”. In addition, under setting [1], the IC50 was above 1000 µM.
`CCCCCC/C=C/CCCCCCCCCC(=O)O` [trans-11-octadecenoic] showed an IC50 under setting [2] above 1000 µM. Also, where the note is “listed as trans-vaccenic”, the “inhibitory effect on KinA” value is listed as “little or no inhibitory effect; also recorded: not inhibitory”.
In the case of `CCCC/C=C\CCCCCCCC(=O)O` [cis-9-tetradecenoic], the “inhibitory effect on KinA” value is recorded as “only a weak inhibitor”. Further, the IC50 under setting [1] is 100 to 500 µM. Also, the IC50 under setting [3] was 200 µM.
Consider L-α-phosphatidylcholine, for which the “inhibition” value is “Only oleic acid and stearic acid were inhibitory”.
Regarding `CCCCC/C=C\C/C=C\CCCCCCCC(=O)O` [cis,cis-9,12-octadecenoic], the IC50 under setting [1] is below 70 µM.
As for `CCCCCC(=O)O` [hexanoic], the “inhibitory effect on KinA” value is reported as “not inhibitors”. For the same compound, the IC50 under setting [1] was above 1000 µM.
L-α-phosphatidic acid: the “inhibition” value is “Only oleic acid and stearic acid were inhibitory”.
The same measure, in the same setting: then `O=P(O)(O)OCC(O)CO` (centres unmarked) [glycerophosphate], with “Only oleic acid and stearic acid were inhibitory”.
As to `CCCCC/C=C\C/C=C\C/C=C\C/C=C\CCCC(=O)O` [all cis-5,8,11,14-eicosatetraenoic], under setting [2], the IC50 is below 70 µM.
For the compound `CCCCCCCCCCCCCCCCC(=O)O` [heptadecanoic], the IC50 under setting [1] was above 1000 µM.
As to `CC/C=C\C/C=C\C/C=C\CCCCCCCC(=O)O` [all cis-9,12,15-octadecanoic], the IC50 under setting [1] was below 70 µM.
Turning to `CCCCCCCC(=O)O` [octanoic], the “inhibitory effect on KinA” value is listed as “not inhibitors”. For the same compound, the IC50 under setting [1] was above 1000 µM.
As for `CCCCCC/C=C\CCCCCCCC(=O)O` [cis-9-hexadecanoic], the “inhibitory effect on KinA” value was “potent inhibitors”. Also, the IC50 under setting [1] was below 70 µM.
Take `CC(C)CCCCCCCCCCCCCC(=O)O` [15-methylhexadecanoic]: the “inhibitory effect on KinA” value is listed as “not inhibitors”. In addition, the IC50 under setting [1] was above 1000 µM.
Regarding `CCCCCCCCCCCCCCCCCCCC(=O)O` [eicosanoic], the IC50 under setting [1] is above 1000 µM.
In the case of `CC(C)CCCCCCCCCCCCCCC(=O)O` [16-methylheptadecanoic], the “inhibitory effect on KinA” value is recorded as “not inhibitors”. Moreover, the IC50 under setting [1] was above 1000 µM.
In the case of `CCCCCCCCCCCCCCCC(=O)O` [hexadecanoic], the “inhibitory effect on KinA” value is “little or no inhibitory effect”; the “inhibition” value was “Only oleic acid and stearic acid were inhibitory”. In addition, the IC50 under setting [1] is above 1000 µM.
With `CCCCCC/C=C\CCCCCCCCCC(=O)O` [cis-11-octadecanoic], the “inhibitory effect on KinA” value is “potent inhibitors”. The same compound registered an IC50 under setting [2] below 70 µM.
